From US20180235221A1 (priority 2015, published 2018)

Columns and labels:
[1] = test system: Qol resistant Septoria tritici isolate (3573); test: Microtest, activity against causal agent of leaf blotch Septoria tritici; type: cell-based; details: single active compound, MTP, 405 nm, 7 days after inoculation
[2] = test system: Qol resistant Alternaria solani isolate (141); test: Microtest, activity against early blight pathogen Alternaria solani; type: cell-based; details: single active compound, MTP, 405 nm, 7 days after inoculation

SMILES	Observed efficacy ([1]; 0.016 ppm)	Observed efficacy ([1]; 0.063 ppm)	Observed efficacy ([1]; 0.25 ppm)	Observed efficacy ([2]; 0.25 ppm)	Observed efficacy ([2]; 0.016 ppm)	Observed efficacy ([2]; 0.063 ppm)
CNC(=O)C(=N/OC)/C(C)=C\COc1ccn(-c2ccc(Cl)cc2)n1 [Compound I-1, (Z,2E)-5-[1-(4-chlorophenyl)pyrazol-3-yl]oxy-2-methoxyimino-N,3-dimethyl-pent-3-enamide]	10%	21%	49%	0%	–	–
Cn1nnn(-c2cccc(Cl)c2COc2ccn(-c3ccc(Cl)cc3)n2)c1=O [II-1, 1-[3-chloro-2[[1-(4-chlorophenyl)-1H-pyrazol-3-yl]oxymethyl]phenyl]-4-methyl-tetrazol-5-one]	–	–	23%	–	0%	0%
Cn1nnn(-c2cccc(F)c2COc2ccn(-c3ccc(Cl)cc3Cl)n2)c1=O [II-5, 1-[2-[[1-(2,4-dichlorophenyl)pyrazol-3-yl]oxymethyl]-3-fluoro-phenyl]-4-methyl-tetrazol-5-one]	–	–	–	–	6%	–
Cn1nnn(-c2cccc(Br)c2COc2ccn(-c3ccc(Cl)cc3)n2)c1=O [II-2, 1-[3-bromo-2-[[1-(4-chlorophenyl)pyrazol-3-yl]oxymethyl]phenyl]-4-methyl-tetrazol-5-one]	–	–	–	0%	0%	0%
Cn1nnn(-c2cccc(F)c2COc2ccn(-c3ccc(Cl)cc3)n2)c1=O [II-4, 1-[2-[[1-(4-chlorophenyl)pyrazol-3-yl]oxymethyl]-3-fluoro-phenyl]-4-methyl-tetrazol-5-one]	–	–	–	–	0%	0%
CC(=NOCc1c(C)cccc1-n1nnn(C)c1=O)c1cccc(C(F)(F)F)c1 [II-11, -methyl-4-[3-methyl-2-[[1-[3-(trifluoromethyl)-phenyl]-ethylideneamino]oxymethyl]phenyl]tetrazol-5-one]	–	–	–	15%	0%	0%
CNC(=O)C(=N/OC)/C(C)=C\COc1ccn(-c2ccc(Cl)cc2Cl)n1 [Compound I-3, (Z,2E)-5-[1-(2,4-dichlorophenyl)pyrazol-3-yl]oxy-2-methoxyimino-N,3-dimethyl-pent-3-en-amide]	10%	32%	–	0%	–	0%
Cc1cccc(-n2nnn(C)c2=O)c1COc1ccn(-c2ccc(Cl)cc2)n1 [II-3, 1-[2-[[1-(4-chlorophenyl)pyrazol-3-yl]oxymethyl]-3-methyl-phenyl]-4-methyl-tetrazol-5-one]	–	–	17%	–	0%	–
